# According to patent EP0531958A1, “6-Aminoquinolones, their synthesis and their use as antibacterial agents” (MEDIOLANUM FARMACEUTICI S.P.A., priority 1991, dated 1993):
# Where two headings read alike, the source gives them in different places.
# Key:
# Format in all cases: cell-based
# [1] = test system: Streptococcus facealis LEP Br.; assay: MIC test, agar dilution with Steers multiwell inoculator; settings: TSA dishes, 24 h at 35°C, read-out: Minimum Inhibiting Concentration
# Experimental: (§1) As to the antibacterial activity, there was determined the Least (Minimum) Inhibiting Concentration (MIC), by working according to the following operative conditions.
# (§2) There were used suspensions of test germs (5 gram-positive and 15 gram-negative) having a known titre, kept freezed at -80°C and diluted, at the time of use, in peptonized water up to a concentration of 1-2.10⁷ cfu/ml.
# (§3) A few mg of the products, according to the invention were weighed sufficient for preparing parent solutions in DMSO + NaOH (1N) containing 2560 µg/ml (64µg/ml/dish). From the thus prepared parent solutions there were prepared 12 serial dilutions (1:2) down to the concentration of 1.25 µg/ml.
# (§4) 0.5 ml of the different dilutions of each product were distributed on dishes containing 19.5 ml of agarized medium (TSA), maintained in a fluid state at the temperature of 50°C. After slight stirring, the dishes were made to solidify and dry under hood (laminar flow).
# (§5) The MIC tests (Least or "Minimum" Inhibiting Concentration) were performed by using a Steers multiwell inoculator having 36 wells, each containing 200 µl of bacterial suspension.
# (§6) After inoculation, the dishes were placed into a thermostat and checked after 24 h of incubation at 35°C.
# (§7) The MIC is defined as the lowermost product concentration (µg/ml) inhibiting the visible growth of the microorganisms.
# [2] = test system: Klebsiella pneumoniae ATCC 10031; assay: as above; settings: ATCC10031, TSA dishes, 24 h at 35°C, read-out: Minimum Inhibiting Concentration
# Experimental: as §1, §2, §3, §4, §5, §6, §7
# [3] = test system: Staphylococcus aureus MPR 5; assay: as above; settings: MPR5, TSA dishes, 24 h at 35°C, read-out: Minimum Inhibiting Concentration
# Experimental: as §1, §2, §3, §4, §5, §6, §7
# Proteus vulgaris CNUR 6 = assay: as above; settings: CNUR6, TSA dishes, 24 h at 35°C, read-out: Minimum Inhibiting Concentration
# Experimental: as §1, §2, §3, §4, §5, §6, §7
# [4] = test system: Staphylococcus epidermidis HCF Berset C.; assay: as above; settings: TSA dishes, 24 h at 35°C, read-out: Minimum Inhibiting Concentration
# Experimental: as §1, §2, §3, §4, §5, §6, §7
# [5] = test system: Pseudomonas aeruginosa CNUR 2; assay: as above; settings: CNUR2, TSA dishes, 24 h at 35°C, read-out: Minimum Inhibiting Concentration
# Experimental: as §1, §2, §3, §4, §5, §6, §7
# Escherichia coli ISF 432 = assay: as above; settings: ISF432, TSA dishes, 24 h at 35°C, read-out: Minimum Inhibiting Concentration
# Experimental: as §1, §2, §3, §4, §5, §6, §7
# [6] = test system: Enterobacter cloacae OMNF 1174; assay: as above; settings: OMNF1174, TSA dishes, 24 h at 35°C, read-out: Minimum Inhibiting Concentration
# Experimental: as §1, §2, §3, §4, §5, §6, §7
# [7] = test system: Staphylococcus epidermidis CPHL A2; assay: as above; settings: CPHLA2, TSA dishes, 24 h at 35°C, read-out: Minimum Inhibiting Concentration
# Experimental: as §1, §2, §3, §4, §5, §6, §7
# [8] = test system: Providencia stuardii CNUR 5; assay: as above; settings: CNUR5, TSA dishes, 24 h at 35°C, read-out: Minimum Inhibiting Concentration
# Experimental: as §1, §2, §3, §4, §5, §6, §7
# [9] = test system: Pseudomonas aeruginosa ATCC 9027; assay: as above; settings: ATCC9027, TSA dishes, 24 h at 35°C, read-out: Minimum Inhibiting Concentration
# Experimental: as §1, §2, §3, §4, §5, §6, §7
# Escherichia coli 120 = assay: as above; settings: TSA dishes, 24 h at 35°C, read-out: Minimum Inhibiting Concentration
# Experimental: as §1, §2, §3, §4, §5, §6, §7
# Escherichia coli CNUR 1 = assay: as above; settings: CNUR1, TSA dishes, 24 h at 35°C, read-out: Minimum Inhibiting Concentration
# Experimental: as §1, §2, §3, §4, §5, §6, §7
# Escherichia coli CNUR 8 = assay: as above; settings: CNUR8, TSA dishes, 24 h at 35°C, read-out: Minimum Inhibiting Concentration
# Experimental: as §1, §2, §3, §4, §5, §6, §7
# [10] = test system: Acinebacter calcoloaceticus OSMPV 1130; assay: as above; settings: TSA dishes, 24 h at 35°C, read-out: Minimum Inhibiting Concentration
# Experimental: as §1, §2, §3, §4, §5, §6, §7
# [11] = test system: Pseudomonas aeruginosa CNUR 4; assay: as above; settings: CNUR4, TSA dishes, 24 h at 35°C, read-out: Minimum Inhibiting Concentration
# Experimental: as §1, §2, §3, §4, §5, §6, §7
# Shighella enteritidis = assay: as above; settings: TSA dishes, 24 h at 35°C, read-out: Minimum Inhibiting Concentration
# Experimental: as §1, §2, §3, §4, §5, §6, §7
# [12] = test system: Escherichia coli ATCC 8739; assay: as above; settings: ATCC8739, TSA dishes, 24 h at 35°C, read-out: Minimum Inhibiting Concentration
# Experimental: as §1, §2, §3, §4, §5, §6, §7
# [13] = test system: Staphylococcus aureus ATCC 6538; assay: as above; settings: ATCC6538, TSA dishes, 24 h at 35°C, read-out: Minimum Inhibiting Concentration
# Experimental: as §1, §2, §3, §4, §5, §6, §7
# [14] = test system: Enterobacter cloacae OMNF 1153; assay: as above; settings: OMNF1153, TSA dishes, 24 h at 35°C, read-out: Minimum Inhibiting Concentration
# Experimental: as §1, §2, §3, §4, §5, §6, §7
# Gram + = assay: MIC test, average over the 5 gram-positive test germs; settings: 24 h
# Experimental: as §1, §2, §3, §4, §5, §6, §7
# Gram - = assay: MIC test, average over the 15 gram-negative test germs; settings: 24 h
# Experimental: as §1, §2, §3, §4, §5, §6, §7
# [15] = geometrical average of the MIC over the 15 Gram - strains, read-out: Geometrical Average
# [16] = mean log of the MIC over the 15 Gram - strains, read-out: Log (converted)
# [17] = geometrical average of the MIC over the 5 Gram + strains, read-out: Geometrical Average
smiles,measurement,setting,value
"CN1CCN(c2cc3c(cc2N)c(=O)c(C(=O)O)cn3C(C)(C)C)CC1 [Compound 44, 6-amino-1-terbutyl-7-(4-methyl-1-piperazinyl)-1,4-dihidro-4-oxo-quinoline carboxylic acid]",MIC,[1],32 mg/L
same,MIC,[2],0.06 mg/L
same,MIC,[3],2 mg/L
same,MIC,Proteus vulgaris CNUR 6,128 mg/L
same,MIC,[4],4 mg/L
same,MIC,[5],32 mg/L
same,MIC,Escherichia coli ISF 432,0.06 mg/L
same,MIC,[6],1 mg/L
same,MIC,[7],2 mg/L
same,MIC,[8],4 mg/L
same,MIC,[9],4 mg/L
same,MIC,Escherichia coli 120,0.5 mg/L
same,MIC,Escherichia coli CNUR 1,1 mg/L
same,MIC,Escherichia coli CNUR 8,0.5 mg/L
same,MIC,[10],4 mg/L
same,MIC,[11],128 mg/L
same,MIC,Shighella enteritidis,1 mg/L
same,MIC,[12],0.06 mg/L
same,MIC,[13],2 mg/L
same,MIC,[14],2 mg/L
same,MIC,Gram +; read-out: Log (converted),4 mg/L
same,MIC,Gram -; [15],1.73 mg/L
same,MIC,Gram -; [16],1.73 mg/L
Nc1cc2c(=O)c(C(=O)O)cn(-c3ccc(F)cc3)c2cc1N1CCSCC1 [Compound 51],MIC,[1],64 mg/L
same,MIC,[2],0.03 mg/L
same,MIC,[3],0.5 mg/L
same,MIC,Proteus vulgaris CNUR 6,128 mg/L
same,MIC,[4],2 mg/L
same,MIC,[5],128 mg/L
same,MIC,Escherichia coli ISF 432,0.03 mg/L
same,MIC,[6],4 mg/L
same,MIC,[7],2 mg/L
same,MIC,[8],4 mg/L
same,MIC,[9],128 mg/L
same,MIC,Escherichia coli 120,0.5 mg/L
same,MIC,Escherichia coli CNUR 1,4 mg/L
same,MIC,Escherichia coli CNUR 8,0.5 mg/L
same,MIC,[10],4 mg/L
same,MIC,[11],128 mg/L
same,MIC,[12],0.06 mg/L
same,MIC,[13],0.5 mg/L
same,MIC,[14],4 mg/L
same,MIC,Gram +; [17],2.3 mg/L
same,MIC,Gram +; read-out: Log (converted),2.3 mg/L
same,MIC,Gram -; [15],3.01 mg/L
same,MIC,Gram -; [16],3.01 mg/L
CC1CN(c2cc3c(cc2N)c(=O)c(C(=O)O)cn3C2CC2)CCN1 (stereo not shown) [Compound 14],MIC,[1],32 mg/L
same,MIC,[2],0.03 mg/L
same,MIC,[3],16 mg/L
same,MIC,Proteus vulgaris CNUR 6,32 mg/L
same,MIC,[4],4 mg/L
same,MIC,[5],4 mg/L
same,MIC,Escherichia coli ISF 432,0.03 mg/L
same,MIC,[6],0.25 mg/L
same,MIC,[7],4 mg/L
same,MIC,[8],16 mg/L
same,MIC,[9],2 mg/L
same,MIC,Escherichia coli 120,0.06 mg/L
same,MIC,Escherichia coli CNUR 1,0.12 mg/L
same,MIC,Escherichia coli CNUR 8,0.12 mg/L
same,MIC,[10],16 mg/L
same,MIC,[11],64 mg/L
same,MIC,Shighella enteritidis,0.25 mg/L
same,MIC,[12],0.03 mg/L
same,MIC,[13],16 mg/L
same,MIC,[14],0.5 mg/L
same,MIC,Gram +; [17],10.6 mg/L
same,MIC,Gram +; read-out: Log (converted),10.5 mg/L
same,MIC,Gram -; [15],0.68 mg/L
same,MIC,Gram -; [16],0.679 mg/L
"Cc1c(N2CCc3ccccc3C2)c(N)cc2c(=O)c(C(=O)O)cn(C3CC3)c12 [Compound 36, 6-amino-1-cyclopropyl-8-methyl-7-[2-(1,2,3,4-tetrahydroisoquinolinyl)]-carboxylic acid]",MIC,[1],4 mg/L
same,MIC,[2],0.12 mg/L
same,MIC,[3],0.5 mg/L
same,MIC,Proteus vulgaris CNUR 6,64 mg/L
same,MIC,[4],2 mg/L
same,MIC,[5],8 mg/L
same,MIC,Escherichia coli ISF 432,0.25 mg/L
same,MIC,[6],8 mg/L
same,MIC,[7],1 mg/L
same,MIC,[8],2 mg/L
same,MIC,[9],32 mg/L
same,MIC,Escherichia coli 120,2 mg/L
same,MIC,Escherichia coli CNUR 1,4 mg/L
same,MIC,Escherichia coli CNUR 8,2 mg/L
same,MIC,[10],8 mg/L
same,MIC,[11],128 mg/L
same,MIC,[12],0.12 mg/L
same,MIC,[13],0.5 mg/L
same,MIC,[14],8 mg/L
same,MIC,Gram +; [17],1.15 mg/L
same,MIC,Gram +; read-out: Log (converted),1.15 mg/L
same,MIC,Gram -; [15],3.98 mg/L
same,MIC,Gram -; [16],3.98 mg/L
"Nc1cc2c(=O)c(C(=O)O)cn(-c3ccc(F)cc3)c2cc1N1CCc2ccccc2C1 [Compound 52, 6-amino-1-(4-fluorophenyl)-7-[2-(1,2,3,4-tetrahydroisoquinolinyl)]-1,4-dihydro-4-oxo-quinoline carboxylic acid]",MIC,[1],64 mg/L
same,MIC,[2],0.12 mg/L
same,MIC,[3],1 mg/L
same,MIC,Proteus vulgaris CNUR 6,128 mg/L
same,MIC,[4],4 mg/L
same,MIC,[5],128 mg/L
same,MIC,Escherichia coli ISF 432,0.12 mg/L
same,MIC,[6],4 mg/L
same,MIC,[7],2 mg/L
same,MIC,[8],8 mg/L
same,MIC,[9],128 mg/L
same,MIC,Escherichia coli 120,1 mg/L
same,MIC,Escherichia coli CNUR 1,4 mg/L
same,MIC,Escherichia coli CNUR 8,1 mg/L
same,MIC,[10],4 mg/L
same,MIC,[11],128 mg/L
same,MIC,[12],0.12 mg/L
same,MIC,[13],0.5 mg/L
same,MIC,[14],8 mg/L
same,MIC,Gram +; [17],3.03 mg/L
same,MIC,Gram +; read-out: Log (converted),3.03 mg/L
same,MIC,Gram -; [15],4.56 mg/L
same,MIC,Gram -; [16],4.56 mg/L
Nc1cc2c(=O)c(C(=O)O)cn(C3CC3)c2cc1N1CCC(O)CC1 [Compound 16],MIC,[1],8 mg/L
same,MIC,[2],0.03 mg/L
same,MIC,[3],4 mg/L
same,MIC,Proteus vulgaris CNUR 6,128 mg/L
same,MIC,[4],4 mg/L
same,MIC,[5],128 mg/L
same,MIC,Escherichia coli ISF 432,0.03 mg/L
same,MIC,[6],2 mg/L
same,MIC,[7],2 mg/L
same,MIC,[8],8 mg/L
same,MIC,[9],8 mg/L
same,MIC,Escherichia coli 120,0.5 mg/L
same,MIC,Escherichia coli CNUR 1,2 mg/L
same,MIC,Escherichia coli CNUR 8,1 mg/L
same,MIC,[10],2 mg/L
same,MIC,[11],128 mg/L
same,MIC,[12],0.03 mg/L
same,MIC,[13],4 mg/L
same,MIC,[14],2 mg/L
same,MIC,Gram +; [17],4 mg/L
same,MIC,Gram +; read-out: Log (converted),4 mg/L
same,MIC,Gram -; [15],2.08 mg/L
same,MIC,Gram -; [16],2.07 mg/L
